Measured values published in patent US10322103B2, “Compositions for prevention/prophylactic treatment of poison ivy dermatitis” (The University of Mississippi, priority 2008, dated 2019).

Columns and labels:
[1] = test system: urushiol contact dermatitis; experiment: Induction of tolerance to poison ivy/poison oak urushiol in the guinea pig contact dermatitis model; format: in vivo, Hartley guinea pigs; settings: for erythema at the exposure site / erythema or edema observed: Test #1; for erythema at the exposure site: 24, 48 or 72 hrs post challenge, urushiol 3.0, 4.5 and 6.0 ug; for erythema or edema at the site of urushiol challenge: 24 hours, any of the doses used; for skin lesion scores compared to groups IV and V: all the 3 tests
Text: Animals: Hartley strains of guinea pigs (n=40) were obtained from Harlan, Indianapolis Ind. 46229. The animals were divided in the 5 groups (n=8/group) and treated as described hereunder. These animals were kept in a controlled environment with a 12-hour day and night cycle and provided feed and water ad libitum. Study design: FIG. 8 describes the general procedure for determining the efficacy of the agents produced according to the present invention.
Application sites of urushiol challenge doses on abdominal skin are shown in FIG. 9, and are described below.
Group I. Animals in this group were given the compound (4) (HDC 4-(4-aminophenyl) butyrate ester) via the intramuscular (IM) route; 300 ul of the equivalent of 20 mg/mL solution of the free catechol in 5% ethanol in each hind leg. Two weeks later these animals were sensitized with urushiol (100 uL acetone containing 1.0 mg of urushiol) on the surface skin in the neck region. Two weeks later the animals were challenged with urushiol (15 uL volume acetone containing 3.0 ug, 4.5 ug or 6.0 ug) on the abdominal skin in a volume of 15 uL. The vehicle contained 15 uL of acetone (see diagram 2). The animals were tested 3 times after sensitization: Test #1 at two weeks post sensitization, test #2 conducted at four weeks post sensitization and test #3 was conducted twelve weeks post sensitization.
Group II. Animals were given 300 uL of the equivalent of 20 mg/mL solution of the free catechol in 5% ethanol of HDC Phenyl alaninate ester (compound 3) via the IM route in each hind leg (total 600 uL). This was followed by sensitization with urushiol on the neck, and then tested with urushiol challenge on the abdominal skin as described for group I.
Group III. Animals were given 300 uL of the equivalent of 20 mg/mL solution of the free catechol in 5% ethanol of HDC Hemiglutarate ester (compound 5) via the IM route in each hind leg. This was followed, two weeks later, by sensitization with (urushiol 100 uL) on the neck, followed by abdominal skin test as described for group I.
Group IV. Animals were given 300 uL of vehicle (5% ethanol) via the IM route in each of the hind legs. This was followed, two weeks later, by sensitization and then followed by abdominal skin test as described for group I.
Group V. Animals in this group were given PBS (300 uL in each of the hind legs) via the IM route. This was followed two weeks later by sensitization and then followed by abdominal skin test as described for group I.
After challenging the animals with urushiol on their abdominal skin, the severity of Erythema and Edema were observed and scored according to the Draize scoring system as shown below. The scores were recorded at 24, 48 and 72 hrs post urushiol skin application.

[2] = Polarity: dissolution in ethanol and dilution with aqueous medium; format: physicochemical
Text: Polarity of HDC-Phenyl Alaninate Ester:

[3] = Test #2, 48 hours, urushiol challenge dose 4.5 ug
[4] = Test #2, 48 hours, urushiol challenge dose 6.0 ug

Compound | erythema at the exposure site [1] | erythema or edema observed ([1]; 48 hours post challenge) | erythema or edema observed ([1]; 72 hours post challenge) | skin lesion score ([1]; Test #2, 48 hours, all challenge doses) | erythema or edema at the site of urushiol challenge ([1]; Test #3) | lesion score ([1]; Test #3, 48 hours) | skin lesion scores compared to groups IV and V [1] | appearance of solution (polarity) ([2]; 10 mg dissolved in 50 ul of ethanol, adjusted to 1 ml with water) | total skin lesion score [1, 3] | total skin lesion score [1, 4] | appearance of solution (polarity) ([2]; 10 mg as a HCl salt in 50 ul of ethanol, adjusted to 1 mL with water (10 mg/mL)) | total lesion score ([1]; Test #2, 72 hours) | appearance of solution (polarity) ([2]; 10 mg in 50 ul of ethanol, adjusted to 1 ml with potassium phosphate buffer (pH 8))
CCCCCCCCCCCCCCCCCc1cccc(OC(=O)[C@@H](N)Cc2ccccc2)c1OC(=O)[C@@H](N)Cc1ccccc1 [Compound 3, HDC-Phenyl Alaninate Ester] | did not show any or showed very slight erythema | no erythema or edema was observed | no erythema or edema was observed | ≤ 1.0 | did not show erythema or edema | ≤ 1.0 | negligible | formed a homogenous solution | – | – | – | – | –
CCCCCCCCCCCCCCCCCc1cccc(OC(=O)CCCc2ccc(N)cc2)c1OC(=O)CCCc1ccc(N)cc1 [Compound 4] | did not show any or showed very slight erythema | no erythema or edema was observed | no erythema or edema was observed | – | did not show erythema or edema | – | negligible | – | 1.5 | 1.5 | clear solution | – | –
CCCCCCCCCCCCCCCCCc1cccc(OC(=O)CCCC(=O)O)c1OC(=O)CCCC(=O)O [Compound 5, 5,5′(3-heptadecyl-1,2-phenylene)bis(oxy)bis(5-oxopentanoic acid)] | did not show any or showed very slight erythema | no erythema or edema was observed | no erythema or edema was observed | – | did not show erythema or edema | – | negligible | – | 1.0 | 2.5 | – | ≤ 2.0 | formed a homogenous solution
